{"source": "patent US8846928B2", "about": "(Portola Pharmaceuticals, Inc., priority 2010, dated 2014)"}
{"target": "T1, full length active recombinant SYK enzyme (Homo sapiens, UniProt P43405)", "T1 construct": "full length active recombinant SYK enzyme (Millipore, Calif.); purchased Millipore", "assay": "Inhibition of Syk tyrosine phosphorylation activity (LANCE TR-FRET kinase assay)", "type": "biochemical", "procedure": "Inhibition of Syk Tyrosine Phosphorylation Activity\nPotency of candidate molecules for inhibiting Syk tyrosine phosphorylation activity is assessed by measuring the ability of a test compound to inhibit Syk-mediated tyrosine phosphorylation of a Syk-specific substrate.\nSYK tyrosine phosphorylation activity is measured using the LANCE™ Technology developed by Perkin Elmer Life and Analytical Sciences (Boston, Mass.). LANCE™ refers to homogeneous time resolved fluorometry applications using techniques such as time-resolved fluorescence resonance energy transfer assay (TR-FRET) (see generally for procedures in Perkin Elmer Application Note—How to Optimize a Tyrosine Kinase Assay Using Time Resolved Fluorescence-Based LANCE Detection, wwww.perkinelmer.com/lifesciences). The assay principle involves detection of a phosphorylated substrate using energy transfer from a phosphospecific europium-labeled antibody to streptavidin-allophycocyanin as an acceptor.\nTo test the ability of candidate molecules to inhibit SYK tyrosine phosphorylation activity, molecules are reconstituted in 30% DMSO and serially diluted 1:3 with the final dilution containing DMSO in the absence of the candidate molecule. The final DMSO concentration in the assay is 3%. Kinase assays are performed as a two part reaction. […] The second reaction involves termination of the kinase reaction and the simultaneous addition of the detection reagents—europium-labeled anti-phosphotyrosine reagent (Eu-W1024-PY100, Perkin Elmer, Boston, Mass.) and Streptavidin-Allophycocyanin detection reagent (SA-APC, Prozyme, Calif.). The kinase reaction is performed in a black U-bottom 96-well microtitre plate. The final reaction volume is 50 μL and contains a final concentration of 1 nM active SYK enzyme, 550 nM SYK-substrate, and 100 μM ATP diluted in a buffer containing 50 mM Tris pH 7.5, 5 mM MgCl2, and 1 mM DTT. The reaction is allowed to proceed for 1 hour at room temperature. The quench buffer contains 100 mM Tris pH 7.5, 300 mM NaCl2, 20 mM EDTA, 0.02% Brij35, and 0.5% BSA. The detection reagents are added to the reaction mixture at the following dilutions-1:500 for Eu-W1024-PY100 and 1:250 for SA-APC. The kinase reaction is terminated by the addition of 50 μL quench buffer containing the detection reagents. The detection is allowed to proceed for 1 hr at room temperature. Detection of the phosphorylated substrate in the absence and presence of inhibitors is measured in the TR-FRET instrument, Analyst HT (Molecular Probes, Sunnyvale, Calif.) and the condition for measurements are set up using CriterionHost Release 2.0 (Molecular Probes, Sunnyvale, Calif.). The settings used are a follows: excitation 360 nm, emission 665-7.5 nm, beam splitter 350 nm 50/50, flash 100 pulses, delay 60 us, integration 400 us, z-height 2 mm. […] IC50s were derived by non-linear regression analysis. […]", "units": {"IC50": "nM"}}
{"compound": "CC[C@@H](Nc1nc(Nc2ccc3nccn3c2)c(C(N)=O)cc1F)C(N)=O", "note": "[Example 229, (R)-6-(1-amino-1-oxobutan-2-ylamino)-5-fluoro-2-(H-imidazo[1,2-a]pyridin-6-ylamino)nicotinamide]", "IC50": "10 to 100"}
{"compound": "CC[C@@H](Nc1ccc(C(N)=O)c(Nc2ccc3scnc3c2)n1)C(N)=O", "note": "[Example 207, (R)-6-(1-amino-1-oxobutan-2-ylamino)-2-(benzo[d]thiazol-5-ylamino)nicotinamide]", "IC50": "10 to 100"}
{"compound": "CC(C)C[C@@H](Nc1nc(Nc2cccc(-n3nccn3)c2)c(C(N)=O)cc1C#N)C(N)=O", "note": "[Example 125, (R)-2-(3-(2H-1,2,3-triazol-2-yl)phenylamino)-6-(1-amino-4-methyl-1-oxopentan-2-ylamino)-5-cyanonicotinamide]", "IC50": "100 to 1000"}
{"compound": "CC[C@@H](Nc1nc(Nc2cnc3ncccc3c2)c(C(N)=O)cc1F)C(N)=O", "note": "[Example 228, (R)-6-(1-amino-1-oxobutan-2-ylamino)-5-fluoro-2-(1,8-naphthyridin-3-ylamino)nicotinamide]", "IC50": "10 to 100"}
{"compound": "CC[C@H](Nc1nc(Nc2cccnc2)c(C(N)=O)cc1F)C1(N)CC1", "note": "[Example 371, (S)-6-(1-(1-aminocyclopropyl)propylamino)-5-fluoro-2-(pyridin-3-ylamino)nicotinamide]", "IC50": "> 1000"}
{"compound": "N#Cc1cc(C(N)=O)c(Nc2cccc(-n3nccn3)c2)nc1N[C@@H]1CCCC[C@@H]1N", "note": "[Example 106, 2-(3-(2H-1,2,3-triazol-2-yl)phenylamino)-6-((1R,2S)-2-aminocyclohexylamino)-5-cyanonicotinamide]", "IC50": "1 to 10"}
{"compound": "NC(=O)c1ccc(N[C@@H]2CCCC[C@@H]2N)nc1Nc1cccc2ncsc12", "note": "[Example 401, 6-((1R,2S)-2-aminocyclohexylamino)-2-(benzo[d]thiazol-7-ylamino)nicotinamide]", "IC50": "1 to 10"}
{"compound": "C[C@H](N)CNc1nc(Nc2cccc(-n3nccn3)c2)c(C(N)=O)cc1C#N", "note": "[Example 108, (S)-2-(3-(2H-1,2,3-triazol-2-yl)phenylamino)-6-(2-aminopropylamino)-5-cyanonicotinamide]", "IC50": "10 to 100"}
{"compound": "NC(=O)c1cc(F)c(N[C@H]2[C@@H](N)CCCC2(F)F)nc1Nc1cccc(-n2cccn2)c1", "note": "[Example 341, 2-(3-(1H-pyrazol-1-yl)phenylamino)-6-((1S,6S)-6-amino-2,2-difluorocyclohexylamino)-5-fluoronicotinamide]", "IC50": "1 to 10"}
{"compound": "COc1cc(F)cc(Nc2nc(N[C@@H]3CCCC[C@@H]3N)c(F)cc2C(N)=O)c1", "note": "[Example 326, 6-((1R,2S)-2-aminocyclohexylamino)-5-fluoro-2-(3-fluoro-5-methoxyphenylamino)nicotinamide]", "IC50": "< 1"}
{"compound": "CC[C@H](CN)Nc1nc(Nc2cncc(OC)c2)c(C(N)=O)cc1F", "note": "[Example 96, (R)-6-(1-aminobutan-2-ylamino)-5-fluoro-2-(5-methoxypyridin-3-ylamino)nicotinamide]", "IC50": "10 to 100"}
{"compound": "Cn1cc2c(Nc3nc(N[C@@H]4CCCC[C@@H]4N)c(C#N)cc3C(N)=O)cccc2n1", "note": "[Example 115, 6-((1R,2S)-2-aminocyclohexylamino)-5-cyano-2-(2-methyl-2H-indazol-4-ylamino)nicotinamide]", "IC50": "1 to 10"}
{"compound": "NC(=O)c1cc(F)c(N[C@@H]2CCOC[C@@H]2N)nc1Nc1cnc2ccccc2c1", "note": "[Example 275, 6-((3R,4R)-3-aminotetrahydro-2H-pyran-4-ylamino)-5-fluoro-2-(quinolin-3-ylamino)nicotinamide]", "IC50": "10 to 100"}
{"compound": "NC(=O)c1cc(F)c(N[C@@H]2CCCC[C@@H]2N)nc1Nc1cccc(-n2cccc2)c1", "note": "[Example 187, 2-(3-(1H-pyrrol-1-yl)phenylamino)-6-((1R,2S)-2-aminocyclohexylamino)-5-fluoronicotinamide]", "IC50": "1 to 10"}
{"compound": "C[C@H](N)CNc1nc(Nc2cncc(F)c2)c(C(N)=O)cc1F", "note": "[Example 261, (S)-2-(5-fluoropyridin-3-ylamino)-6-(2-aminopropylamino)-5-fluoronicotinamide]", "IC50": "100 to 1000"}
{"compound": "NC(=O)c1cnc(N[C@@H]2CCCC[C@@H]2N)cc1Nc1csc2ncccc12", "note": "[Example 422]", "IC50": "> 1000"}
{"compound": "Cc1cc(Nc2cc(N[C@H](Cc3cccc(F)c3)C(N)=O)c(F)cc2C(N)=O)sn1", "note": "[Example 37, (R)-4-(1-amino-3-(3-fluorophenyl)-1-oxopropan-2-ylamino)-5-fluoro-2-(3-methylisothiazol-5-ylamino)benzamide]", "IC50": "10 to 100"}
{"compound": "NC(=O)c1ccc(N[C@@H]2CCOC[C@@H]2N)nc1Nc1ccc2ncccc2c1", "note": "[Example 276, 6-((3R,4R)-3-aminotetrahydro-2H-pyran-4-ylamino)-2-(quinolin-6-ylamino)nicotinamide]", "IC50": "1 to 10"}
{"compound": "Cc1cc(Nc2cc(NC[C@@H](N)CC(C)C)ccc2C(N)=O)sn1", "note": "[Example 32, (S)-4-(2-amino-4-methylpentylamino)-2-(3-methylisothiazol-5-ylamino)benzamide]", "IC50": "100 to 1000"}
{"compound": "NC(=O)c1cc(F)c(N[C@@H]2CCCC[C@@H]2N)nc1Nc1cccc(F)c1", "note": "[Example 316, 6-((1R,2S)-2-aminocyclohexylamino)-5-fluoro-2-(3-fluorophenylamino)nicotinamide]", "IC50": "1 to 10"}
{"compound": "CC[C@@H](Nc1nc(Nc2cnc3cccnc3c2)c(C(N)=O)cc1F)C(N)=O", "note": "[Example 236, (R)-6-(1-amino-1-oxobutan-2-ylamino)-5-fluoro-2-(1,5-naphthyridin-3-ylamino)nicotinamide]", "IC50": "100 to 1000"}
{"compound": "Cn1ccc2cc(Nc3nc(N[C@@H]4CCCC[C@@H]4N)c(F)cc3C(N)=O)ccc21", "note": "[Example 63, 6-((1R,2S)-2-aminocyclohexylamino)-5-fluoro-2-(1-methyl-1H-indol-5-ylamino)nicotinamide]", "IC50": "1 to 10"}
{"compound": "Cn1cc(Nc2cc(N[C@@H]3CCCC[C@@H]3N)ccc2C(N)=O)cn1", "note": "[Example 8, 4-((1R,2S)-2-aminocyclohexylamino)-2-(1-methyl-1H-pyrazol-4-ylamino)benzamide]", "IC50": "> 1000"}
{"compound": "Cc1cc(Nc2cc(N[C@H](CC(C)C)C(N)=O)ccc2C(N)=O)no1", "note": "[Example 12, (R)-4-(1-amino-4-methyl-1-oxopentan-2-ylamino)-2-(5-methylisoxazol-3-ylamino)benzamide]", "IC50": "100 to 1000"}
{"compound": "CC[C@@H](Nc1nc(Nc2csc3ncccc23)c(C(N)=O)cc1F)C(N)=O", "note": "[Example 423, (R)-6-(1-amino-1-oxobutan-2-ylamino)-5-fluoro-2-(thieno[2,3-b]pyridin-3-ylamino)nicotinamide]", "IC50": "10 to 100"}
{"compound": "CC[C@@H](Nc1ccc(C(N)=O)c(Nc2cccc3c2ccn3C)n1)C(N)=O", "note": "[Example 209, (R)-6-(1-amino-1-oxobutan-2-ylamino)-2-(1-methyl-1H-indol-4-ylamino)nicotinamide]", "IC50": "10 to 100"}
{"compound": "NC(=O)c1ccc(N[C@H](CC2CC2)C(N)=O)nc1Nc1ccc2ncccc2c1", "note": "[Example 213, (R)-6-(1-amino-3-cyclopropyl-1-oxopropan-2-ylamino)-2-(quinolin-6-ylamino)nicotinamide]", "IC50": "1 to 10"}
{"compound": "N#Cc1cc(C(N)=O)c(Nc2ccc(-n3cccn3)cc2)nc1N[C@@H]1CCCC[C@@H]1N", "note": "[Example 121, 2-(4-(1H-pyrazol-1-yephenylamino)-6-(1R,2S)-2-aminocyclohexylamino)-5-cyanonicotinamide]", "IC50": "10 to 100"}
{"compound": "NC(=O)c1cc(F)c(N[C@@H]2CCCC[C@@H]2N)nc1Nc1ccc2c(c1)OCCO2", "note": "[Example 78]", "IC50": "1 to 10"}
